pIC50: −log10 of the molar value. Structures can show the parent of a compound that is named as a salt.
Experiments:
[1] = molecular target: T1, Human fibrinogen receptor IIb/IIIa (Homo sapiens, UniProt P05106+P08514); assay: Purified IIb/IIIa receptor assay: solid phase receptor assay, competition with biotinylated vitronectin; format: binding; details: 1 nM biotinylated vitronectin
T1 construct: Human fibrinogen receptor ([…]) was purified from outdated platelets; from tissue; host or cells: outdated human platelets
From the text: Purified IIb/IIIa Receptor Assay
Human fibrinogen receptor ([…]) was purified from outdated platelets. (Pytela, R., Pierschbacher, M. D., Argraves, S., Suzuki, S., and Rouslahti, E. “Arginine-Glycine-Aspartic acid adhesion receptors”, Methods in Enzymology 144(1987):475-489.) Human vitronectin was purified from fresh frozen plasma as described in Yatohgo, T., Izumi, M., Kashiwagi, H., and Hayashi, M., “Novel purification of vitronectin from human plasma by heparin affinity chromatography,” Cell Structure and Function 13(1988):281-292. Biotinylated human vitronectin was prepared by coupling NHS-biotin from Pierce Chemical Company (Rockford, Ill.) to purified vitronectin as previously described. (Charo, I. F., Nannizzi, L., Phillips, D. R., Hsu, M. A., Scarborough, R. M., “Inhibition of fibrinogen binding to GP IIb/IIIa by a GP IIIa peptide”, J. Biol. Chem. 266(3)(1991): 1415-1421.) Assay buffer, OPD substrate tablets, and RIA grade BSA were obtained from Sigma (St. Louis, Mo.). Anti-biotin antibody was obtained from Calbiochem (La Jolla, Calif.). Linbro microtiter plates were obtained from Flow Labs (McLean, Vs.). ADP reagent was obtained from Sigma (St. Louis, Mo.).
This assay is essentially the same reported in Niiya, K., Hodson, E., Bader, R., Byers-Ward, V. Koziol, J. A., Plow, E. F. and Ruggeri, Z. M., “Increased surface expression of the membrane glycoprotein IIb/IIIa complex induced by platelet activation: Relationships to the binding of fibrinogen and platelet aggregation”, Blood 70(1987):475-483. The purified human fibrinogen receptor ([…]) was diluted from stock solutions to 1.0 μg/mL in Tris-buffered saline containing 1.0 mM Ca^++, Mg^++, and Mn^++, pH 7.4 (TBS^+++). The diluted receptor was immediately transferred to Linbro microtiter plates at 100 μL/well (100 ng receptor/well). The plates were sealed and incubated overnight at 4° C. to allow the receptor to bind to the wells. All remaining Steps were at room temperature. The assay plates were emptied and 200 μL of 1% RIA grade BSA in TBS^+++ (TBS^+++/BSA) were added to block exposed plastic surfaces. Following a 2 hour incubation, the assay plates were washed with TBS^+++ using a 96 well plate washer. Logarithmic serial dilution of the test compound and controls were made starting at a stock concentration of 2 mM and using 2 nM biotinylated vitronectin in TBS^+++/BSA as the diluent. This premixing of labeled ligand with test (or control) ligand, and subsequent transfer of 50 μL aliquots to the assay plate was carried out with a CETUS Propette robot; the final concentration of the labeled ligand was 1 nM and the highest concentration of test compound was 1.0×10^−4 M. The competition occurred for two hours after which all wells were washed with a plate washer as before. Affinity purified horseradish peroxidase labeled goat anti-biotin antibody was diluted 1:3000 in TBS^+++/BSA and 125 μL were added to each well. After 30 minutes, the plates were washed and incubated with […] substrate in 100 mM/L citrate buffer, pH 5.0. The plate was read with a microtiter plate reader at a wavelength of 450 nm and when the maximum-binding control wells reached an absorbance of about 1.0, the final A450 were recorded for analysis. The data were analyzed using a macro written for use with the EXCELJ spreadsheet program. The mean, standard deviation, and % CV were determined for duplicate concentrations. The mean A450 values were normalized to the mean of four maximum-binding controls (no competitor added)(B-MAX). The normalized values were subjected to a four parameter curve fit algorithm, [Robard et al., Int. Atomic Energy Agency.

[2] = molecular target: T2, Human vitronectin receptor (αvβ3) (Homo sapiens, UniProt P05106+P06756); assay: Vitronectin adhesion assay: solid phase receptor assay, competition with biotinylated vitronectin; format: binding; details: purified human vitronectin receptor; 1 nM biotinylated vitronectin
T2 construct: Human vitronectin receptor (αvβ3) was purified from human placenta; from tissue; host or cells: human placenta
Protocol: Vitronectin Adhesion Assay
Human vitronectin receptor (αvβ3) was purified from human placenta as previously described [Pytela et al., Methods in Enzymology, 144:475-489 (1987)]. Human vitronectin was purified from fresh frozen plasma as previously described [Yatohgo et al., Cell Structure and Function, 13:281-292 (1988)]. Biotinylated human vitronectin was prepared by coupling NHS-biotin from Pierce Chemical Company (Rockford, Ill.) to purified vitronectin as previously described [Charo et al., J. Biol. Chem., 266(3):1415-1421 (1991)]. Assay buffer, OPD substrate tablets, and RIA grade BSA were obtained from Sigma (St. Louis, Mo.). Anti-biotin antibody was obtained from Calbiochem (La Jolla, Calif.). Linbro microtiter plates were obtained from Flow Labs (McLean, Va.). ADP reagent was obtained from Sigma (St. Louis, Mo.).
This assay was essentially the same as previously reported [Niiya et al., Blood, 70:475-483 (1987)]. The purified human vitronectin receptor (αvβ3) was diluted from stock solutions to 1.0 μg/mL in Tris-buffered saline containing 1.0 mM Ca^++, Mg^++, and Mn^++, pH 7.4 (TBS^+++). The diluted receptor was immediately transferred to Linbro microtiter plates at 100 μL/well (100 ng receptor/well). The plates were sealed and incubated overnight at 4° C. to allow the receptor to bind to the wells. All remaining steps were at room temperature. The assay plates were emptied and 200 μL of 1% RIA grade BSA in TBS^+++ (TBS^+++/BSA) were added to block exposed plastic surfaces. Following a 2 hour incubation, the assay plates were washed with TBS^+++ using a 96 well plate washer. Logarithmic serial dilution of the test compound and controls were made starting at a stock concentration of 2 mM and using 2 nM biotinylated vitronectin in TBS^+++/BSA as the diluent. This premixing of labeled ligand with test (or control) ligand, and subsequent transfer of 50 μL aliquots to the assay plate was carried out with a CETUS Propette robot; the final concentration of the labeled ligand was 1 nM and the highest concentration of test compound was 1.0×10^−4 M. The competition occurred for two hours after which all wells were washed with a plate washer as before. Affinity purified horseradish peroxidase labeled goat anti-biotin antibody was diluted 1:3000 in TBS^+++/BSA and 125 μL were added to each well. After 30 minutes, the plates were washed and incubated with OPD/H2O2 substrate in 100 mM/L Citrate buffer, pH 5.0. The plate was read with a microtiter plate reader at a wavelength of 450 nm and when the maximum-binding control wells reached an absorbance of about 1.0, the final A450 were recorded for analysis. The data were analyzed using a macro written for use with the EXCELJ spreadsheet program. The mean, standard deviation, and % CV were determined for duplicate concentrations. The mean A450 values were normalized to the mean of four maximum-binding controls (no competitor added)(B-MAX). The normalized values were subjected to a four parameter curve fit algorithm [Rodbard et al., Int.

| SMILES | pIC50 [1] | pIC50 [2] |
| --- | --- | --- |
| O=C(O)CC(NC(=O)CNC(=O)c1c[nH]c(=O)c(NC2=NCCN2)c1)c1cc(Cl)cc(Cl)c1O (stereo not drawn) [Example 20, N-[[5-[(4,5,-dihydro-1H-imidazol-2-yl)amino]-1,6-dihydro-6-oxo-3-pyridinyl]-carbonyl]glycyl-3-(3,5-dichloro-2-hydroxyphenyl)-β-alanine, (trifluoroacetate) salt] | 5.69 | 9.49 |
| O=C(O)C[C@H](NC(=O)CNC(=O)c1c[nH]c(=O)c(NC2=NCC(O)CN2)c1)c1cc(Cl)cc(Cl)c1O (stereo partly drawn) [Example 21, (3S)-N-[[1,6-dihydro-6-oxo-5-[(1,4,5,6-tetrahydro-5-hydroxy-2-pyrimidinyl)amino]-3-pyridinyl]carbonyl]glycyl-3-(3,5-dichloro-2-hydroxyphenyl)-β-alanine, trifluoroacetate salt] | 6.26 | 9.70 |
| O=C(O)C[C@@H](NC(=O)CNC(=O)c1c[nH]c(=O)c(NC2=NCCN2)c1)c1cc(Cl)cc(Cl)c1O [Example 48] | 4.55 | 8.37 |
| O=C(O)C[C@H](NC(=O)CNC(=O)c1cc(NC2=NCC(O)CN2)[nH]c(=O)c1)c1cc(Cl)cc(Br)c1O (stereo partly drawn) [Example 43] | 5.12 | 8.19 |
| O=C(O)C[C@H](NC(=O)CNC(=O)c1cc(=O)cc(NC2=NCC(O)CN2)[nH]1)c1cc(Cl)cc(Br)c1O (stereo partly drawn) [Example 31] | 5.74 | 5.40 |
| COCCN/C(N)=N/c1cc(C(=O)NCC(=O)N[C@@H](CC(=O)O)c2cc(Cl)cc(Cl)c2O)c[nH]c1=O [Example 46] | 5.57 | 8.71 |
| O=C(O)CC(NC(=O)CNC(=O)c1c[nH]c(=O)c(NC2=NCC(O)CN2)c1)c1cc(Br)cc(Br)c1O (stereo not drawn) [Example 29] | 5.86 | 9.34 |
| CC1(C)CN=C(Nc2cc(C(=O)NCC(=O)N[C@@H](CC(=O)O)c3cc(Cl)cc(Cl)c3O)c[nH]c2=O)NC1 [Example 47] | 5.17 | 9.00 |
| COCCOCn1cc(C(=O)NCC(=O)NC(CC(=O)O)c2cc(Br)cc(Br)c2O)cc(NC2=NCC(O)CN2)c1=O (stereo not drawn) [Example 28] | 6.01 | 9.37 |
| O=C(O)C[C@H](NC(=O)CNC(=O)c1cncc(N=C2NCC(O)CN2)c1)c1cc(Cl)cc(Cl)c1O (stereo partly drawn) [Example 10] | 6.79 | 9.85 |
| O=C(O)C[C@H](NC(=O)CNC(=O)c1cncc(N=C2NCC(O)CN2)c1)c1cc(Br)cc(Br)c1O (stereo partly drawn) [Example 11] | 6.34 | 9.47 |
| O=C(O)CC(NC(=O)CNC(=O)c1cnc(Cl)c(NC2=NCCN2)c1)c1cc(Cl)cc(Cl)c1O (stereo not drawn) [Example 19, N-[[6-chloro-5-[(4,5,-dihydro-1H-imidazol-2-yl)amino]-3-pyridinyl]carbonyl]-glycyl-3-(3,5-dichloro-2-hydroxyphenyl)-β-alanine, (trifluoroacetate) salt, monohydrate] | 5.60 | 8.53 |
| O=C(O)C[C@H](NC(=O)CNC(=O)c1cncc(NC2=NCC(O)CN2)c1)c1cc(Br)cc(Cl)c1O (stereo partly drawn) [Example 7] | 6.44 | 9.68 |
| N=C(N)Nc1cncc(C(=O)NCC(=O)NC(CC(=O)O)c2cc(Cl)cc(Cl)c2O)c1 (stereo not drawn) [Example 2] | 6.57 | 8.88 |
| O=C(O)CC(NC(=O)CNC(=O)c1cc(NC2=NCCN2)cs1)c1cc(Cl)cc(Cl)c1O (stereo not drawn) [Example 13, N-[[4-[(4,5-dihydro-1H-imidazol-2-yl)amino]-2-thienyl]carbonyl]glycyl-3-(3,5-dichloro-2-hydroxyphenyl)-β-alanine, trifluoroacetate salt] | 6.11 | 8.03 |
| O=C(O)C[C@H](NC(=O)CNC(=O)c1csc(NC2=NCC(O)CN2)c1)c1cc(Cl)cc(Cl)c1O (stereo partly drawn) [Example 37] | 6.57 | 7.20 |
| O=C(O)C[C@H](NC(=O)CNC(=O)c1c[nH]c(=O)c(NC2=NCCN2)c1)c1cc(Br)cc(Br)c1O [Example 36] | 6.01 | 8.95 |
| O=C(O)CC(NC(=O)CNC(=O)c1ccc(NC2=NCCN2)s1)c1cc(Cl)cc(Cl)c1O (stereo not drawn) [Example 16, N-[[5-(4,5,-dihydro-1H-imidazol-2-yl)amino]-2-thienyl]carbonyl]glycyl]-3-(3,5-dichloro-2-hydroxyphenyl)-β-alanine, trifluoroacetate salt] | 5.21 | 4.66 |
| O=C(O)C[C@H](NC(=O)CNC(=O)c1cncc(N=C2NCC(O)CN2)c1)c1cc(Cl)cc(Br)c1O (stereo partly drawn) [Example 9] | 6.61 | 9.74 |
| O=C(O)CC(NC(=O)CNC(=O)c1cncc(NC2=NCCN2)c1)c1cc(Cl)cc(I)c1O (stereo not drawn) [Example 5] | 6.05 | 9.38 |
| O=C(O)C[C@H](NC(=O)CNC(=O)c1cncc(NC2=NCC(O)CN2)c1)c1cc(Br)cc(I)c1O (stereo partly drawn) [Example 26] | 6.08 | 9.15 |
| O=C(O)CC(NC(=O)CNC(=O)c1cncc(NC2=NCCN2)c1)c1cc(Cl)cc(Cl)c1O (stereo not drawn) [Example 3] | 6.53 | 9.39 |
| O=C(O)C[C@H](NC(=O)CNC(=O)c1sccc1CNC1=NCC(O)CN1)c1cc(Cl)cc(Cl)c1O (stereo partly drawn) [Example 45] | 5.78 | 5.96 |
| COc1cc(NC2=NCC(O)CN2)nc(C(=O)NCC(=O)N[C@@H](CC(=O)O)c2cc(Cl)cc(Br)c2O)c1 (stereo partly drawn) [Example 30] | 7.53 | 6.81 |

Source: patent publication US6689754B1, “Heterocyclic glycyl β-alanine derivatives” (G. D. Searle & Co., priority 1998, dated 2004)
